Results taken from patent US20050009893A1, “Treatment of high blood pressure during the acute phase of a stroke” (Solvay Pharmaceuticals GmbH, priority 2001, published 2005).

Assay: ACCESS study (acute candesartan cilexetil evaluation in stroke survivors): early antihypertensive treatment after acute stroke versus placebo
Assay type: in vivo
Conditions: 342 enrolled stroke patients
Text: In order to clarify the question, the ACCESS study (acute candesarten cilexetil evaluation in stroke survivors) was conceived, which has now been completed.
The rational basis of the ACCESS study was the question whether early treatment of elevated blood pressure values in stroke treatment using a substance which affects the renin-angiotensin system in a blocking manner, could reduce the morbidity, mortality and neurological deficits resulting from such strokes. The main question posed related to the use of early antihypertensive treatment of patients with elevated blood pressure values after a stroke. […]
After enrollment of the patients in the study, a randomized therapy with candesartancilexetil or placebo was carried out. Depending upon the measured blood pressure values and patient specific criteria, the therapy was begun with once daily administration of one half to one tablet (corresponding to from 4 to 8 mg candesartancilexetil or placebo). […]

CCOc1nc2cccc(C(=O)O)c2n1Cc1ccc(-c2ccccc2-c2nnn[nH]2)cc1 [candesartan]
cardiovascular end point (number of events) in the course of a twelve month observation period (early treatment from 72 hours up to and including seven days after the stroke, placebo group first treated after one week (30 events)): 17 | difference with respect to the cardiovascular end point in favor of early treatment versus placebo group (twelve month observation period, 17 vs. 30): about 43%
